This is an account of results in patent EP4703365A1, “QUINOLONE DERIVATIVE AND USE THEREOF AGAINST TUMORS” (Horizon Omics Biotech Limited, priority 2023, dated 2024).

The term IC50 denotes the concentration at which inhibition is half-maximal. Higher therefore signals weaker potency.

In series [1] the test system is DLD1 BRCA2^-/-. As to the kind of experiment: Cell activity assay (CellTiterGlo, 6 days), BRCA2 gene knockout DLD1 cancer cells. The format is cell-based. The following applies: Homo sapiens, DLD-1, 144 h, 6 days incubation. How it is done:
(§1) • (1) Compound Treatment • a) Preparation of Stock Solutions of Compounds Test compounds were dissolved in DMSO at a concentration of 10 mM or 5 mM, and Olaparib was dissolved in DMSO at a concentration of 10 mM. • b) Compound Storage All compounds dissolved in DMSO were stored in a desiccator at room temperature for short-term storage and transferred to a -20°C refrigerator for long-term storage. • c) Preparation of Working Concentrations of Compounds
(§2) Test compounds were serially diluted in DMSO at a 3-fold gradient to prepare 10 concentration gradients, starting from 10 µM.
(§3) Olaparib was serially diluted in DMSO at a 3-fold gradient to prepare 10 concentration gradients, starting from 10 µM.
(§4) The 384-well plate loaded with the compounds was centrifuged at 1000 rpm for 1 minute.
(§5) • a) Cells were added to the culture medium and incubated in a cell culture incubator at 37°C with 5% CO2. • b) 40 µL of BRCA1- or BRCA2-deficient cells were added to a 384-well plate and incubated overnight at 37°C with 5% CO2. • c) The test compounds were prepared at different concentration gradients on the master plate, and 80 nL of the test compounds and Olaparib were taken from the master plate and added to the 384-well plate containing cells, and incubated at 37°C with 5% CO2 for 6 days. • d) CellTiterGlo (30 µL per well) was added to the 384-well plate, and after incubation at room temperature in the dark for 30 minutes, measurement was performed using an Envision plate reader.
(§6) • a) GraphPad Prism software was used to calculate the ICso and plot the activity curves as a function of concentration. • b) The inhibition of cell activity by the compounds was calculated using the following formula: % Inhibition = [1−(Cmpd−Blank)/(DMSO−Blank)]* 100 [formula]
(In ATP-based viability assays light output follows the ATP content of the culture.)

Series [2] has as its system UWB1.289 Cells. The series is described as follows: Cell activity assay (CellTiterGlo, 6 days), BRCA1 gene-deficient ovarian cancer cells UWB1.289. The format is cell-based. The conditions noted are these: UWB1289, 144 h, BRCA1 gene-deficient ovarian cancer cells UWB1.289, 6 days incubation. How it is done:
as §1, §2, §3, §4, §5, §6

For series [3], the target named is hERG (Homo sapiens, UniProt Q12809). As to the kind of experiment: hERG cardiotoxicity assay (patch clamp, hERG stably expressed HEK 293 cell line). It counts as cell-based. The following applies: 5 doses applied cumulatively. How it is done:
• 1) The hERG stably expressed HEK 293 cell line (Cat# K1236) was purchased from Invitrogen. Cells were cultured in a medium consisting of 85% DMEM, 10% FBS, 0.1 mM NEAA, 25 mM HEPES, 100 U/mL penicillin-streptomycin, 5 µg/mL Blasticidin, and 400 µg/mL Geneticin. Cells were passaged approximately three times a week using TrypLE™ Express and maintained at ~40% to ~80% confluency. Before assay, cells were placed on coverslips with 5×10^5 cells per 6-cm cell culture dish and induced with 1 µg/mL doxycycline for 48 hours. • 2) The coverslip was removed from the cell culture dish and placed on the microscope stage. A suitable cell was located using a 10× objective. The tip of the electrode was located under the microscope using the 10× objective, and the focus was adjusted to the plane of the cell. Once the tip was in focus, the coarse control of the manipulator was used to advance the electrode downward toward the cell while moving the objective to keep the tip in focus. When directly above the cell, the objective was switched to 40× objective, and the fine control of the manipulator was used to approach the cell surface in small steps. • 3) A blank control was first performed to establish a baseline. […] In the presence of the test compounds, the hERG current was recorded for approximately 5 minutes to reach a steady state, followed by capturing 5 scans. For dose-response testing, 5 doses of the test compounds were cumulatively applied to the cells from low to high concentrations. The positive control, dofetilide at a concentration of 150 nM, was applied to each cell, and the hERG current was measured in the test compounds at the highest concentration as a negative control to normalize the percentage of inhibition. To ensure good performance of the cultured cells and operations, cells from the same batch were also tested with 5 doses of dofetilide. Table 4. hERG Toxicity Assay Results

Series [4] relates to MDA-MB-436. As to the kind of experiment: Cell activity assay (CellTiterGlo, 6 days), BRCA1 gene-deficient MDA-MB-436 cells. The conditions noted are these: Homo sapiens, 144 h, BRCA1 gene-deficient MDA-MB-436, 6 days incubation. The format is cell-based. How it is done: as §1, §2, §3, §4, §5, §6
Series [5] deals with solid tumors. The conditions noted are these: NCT02719977, solid tumors in humans; cited from earlier work.

Sequence of hERG (Q12809 whole entry): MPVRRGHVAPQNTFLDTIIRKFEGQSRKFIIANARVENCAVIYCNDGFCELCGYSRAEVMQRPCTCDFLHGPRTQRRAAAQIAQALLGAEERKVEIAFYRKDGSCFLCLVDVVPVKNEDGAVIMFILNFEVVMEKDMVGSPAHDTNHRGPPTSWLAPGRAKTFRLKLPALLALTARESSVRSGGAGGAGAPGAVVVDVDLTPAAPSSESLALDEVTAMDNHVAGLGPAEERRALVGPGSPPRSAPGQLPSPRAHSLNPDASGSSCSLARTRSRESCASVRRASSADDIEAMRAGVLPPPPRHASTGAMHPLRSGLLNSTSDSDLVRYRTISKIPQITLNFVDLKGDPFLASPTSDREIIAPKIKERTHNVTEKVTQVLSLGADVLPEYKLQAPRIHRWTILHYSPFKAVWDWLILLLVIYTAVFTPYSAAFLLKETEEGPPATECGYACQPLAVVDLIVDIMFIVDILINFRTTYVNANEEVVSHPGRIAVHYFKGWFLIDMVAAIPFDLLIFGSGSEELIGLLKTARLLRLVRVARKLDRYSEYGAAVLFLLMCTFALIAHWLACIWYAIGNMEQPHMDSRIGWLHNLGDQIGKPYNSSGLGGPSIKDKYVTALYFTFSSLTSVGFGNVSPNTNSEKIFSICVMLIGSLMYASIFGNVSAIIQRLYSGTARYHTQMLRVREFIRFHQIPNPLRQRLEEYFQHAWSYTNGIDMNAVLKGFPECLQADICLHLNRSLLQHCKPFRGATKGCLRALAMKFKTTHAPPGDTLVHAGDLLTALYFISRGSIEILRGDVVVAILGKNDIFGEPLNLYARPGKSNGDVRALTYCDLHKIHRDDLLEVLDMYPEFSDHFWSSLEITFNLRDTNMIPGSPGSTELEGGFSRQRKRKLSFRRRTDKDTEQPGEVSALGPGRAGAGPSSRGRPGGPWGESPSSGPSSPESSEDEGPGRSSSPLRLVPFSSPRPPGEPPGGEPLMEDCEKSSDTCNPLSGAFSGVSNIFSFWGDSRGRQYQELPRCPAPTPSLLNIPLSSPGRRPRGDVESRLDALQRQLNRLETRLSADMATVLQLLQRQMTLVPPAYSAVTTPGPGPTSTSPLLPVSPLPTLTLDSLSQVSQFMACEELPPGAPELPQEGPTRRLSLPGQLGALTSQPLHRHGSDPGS

With `CN1CCCN(c2ccc3c(=O)c(C(=O)NC4CC4)c4sc5ccccc5n4c3n2)CC1` [Compound F], the IC50 in series [1] stood at 17.2 nM; in series [2], 40.6 nM.

`CN1CCCN(c2ccc3c(=O)c(C(=O)NCc4n[nH]c(=O)c5ccccc45)c4sc5ccccc5n4c3n2)CC1` [Compound G-2] displayed an IC50 in series [3] of more than 10 µM.

With `CNC(=O)c1c(=O)c2ccc(N3CCCN(C)CC3)nc2n2c1sc1ccccc12` [Compound E], the half-inhibitory concentration (IC50) in series [1] is 11 nM; in series [4] it was 7.7 nM; in series [2], 39.8 nM.

On to `CN1CCCN(c2ccc3c(=O)c(C(=O)NCCN4CCC4)c4sc5ccccc5n4c3n2)CC1` [Compound C], for which the IC50 in series [1] came out at 4.8 nM; in series [2] it was 4.9 nM.

Turning to `Cc1cnc(CNC(=O)c2c(=O)c3ccc(N4CCCN(C)CC4)nc3n3c2sc2ccccc23)cn1` [CX-5461], in series [5], the adverse effects observed result was “phototoxicity, neutropenia, acral erythema, and nausea”. Moreover, the IC50 in series [3] was found to be 5.06 µM; in series [4], 10 nM.

For the compound `CN1CCCN(c2ccc3c(=O)c(C(=O)NCc4ccc(=O)[nH]n4)c4sc5ccccc5n4c3n2)CC1` [Compound G-1], the IC50 in series [3] was more than 30 µM; in series [1], 32.7 nM; in series [2], 40.4 nM.

As for `CN1CCCN(c2ccc3c(=O)c(C(=O)NCCN4CCCC4)c4sc5ccccc5n4c3n2)CC1` [Compound D], the figures for the IC50 in series [1] and in series [2] were 4.3 nM and 5.8 nM, respectively.

With `O=C(c1cc(Cc2n[nH]c(=O)c3ccccc23)ccc1F)N1CCN(C(=O)C2CC2)CC1` [Olaparib, reference compound], the IC50 in series [4] came out at 240 nM; in series [2], 716 nM.
